Data from PMC5030704 (Scientific Reports, 2016).

Molecular target: T1, TNIK (Homo sapiens, UniProt Q9UKE5)
T1 construct: kinase domain, DNA-tagged, KINOMEscan commercial panel
Assay: KINOMEscan competition binding (immobilised reference ligand, qPCR)
Details: read-out: % Ctrl / 10 μM
Excerpt: KINOMEscan competition binding (immobilised reference ligand, qPCR) on TNIK

T1 sequence (Q9UKE5 25-289 limits assumed): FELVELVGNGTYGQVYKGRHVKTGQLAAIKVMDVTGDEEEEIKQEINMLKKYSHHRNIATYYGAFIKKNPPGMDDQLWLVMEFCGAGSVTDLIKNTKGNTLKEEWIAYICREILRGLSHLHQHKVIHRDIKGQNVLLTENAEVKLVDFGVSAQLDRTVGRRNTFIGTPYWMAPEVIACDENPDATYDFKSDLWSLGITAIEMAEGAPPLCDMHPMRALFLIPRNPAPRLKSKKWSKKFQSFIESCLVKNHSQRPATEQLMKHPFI

remaining binding at 10 µM | Structure (SMILES)
11% | Cc1nc(Nc2ncc(C(=O)Nc3c(C)cccc3Cl)s2)cc(N2CCN(CCO)CC2)n1 [Dasatinib]
33% | CN1CC[C@H](c2c(O)cc(O)c3c(=O)cc(-c4ccccc4Cl)oc23)[C@H](O)C1 [Flavopiridol]
8.2% | COC(=O)Nc1nc2cc(C(=O)c3ccccc3)ccc2[nH]1 [Mebendazole]
